Results on 49 compounds are retold here after PubChem BioAssay AID179 (DTP/NCI, 2004).

The test system of the assay is CEM cells HIV-1 protection, formazan growth assay. As to the kind of experiment: NCI AIDS Antiviral Assay. To be noted: for pIC50: measured here: growth of uninfected CEM cells. The method in brief:
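Five concentrations of each compound were applied to infected and uninfected human CEM cells. Protection from HIV-1 was judged from growth measured with a soluble formazan assay.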

pEC50, pIC50: −log10 of the molar value. Where “and” joins values, the source holds several entries; their conditions need not be identical. Equal entries are not always repeated. Calls of active or inactive are those of the source.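 The calls were made as follows: active = compounds giving half or more protection of infected cells from virus-caused growth loss, again on retest; inactive = the rest.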 Where a SMILES comes first, the peptide text is derived from it. The star is where a group is joined. Boc = CC(C)(C)OC(=O)*

One may read the pEC50 as −log10 of the EC50, conventionally taken in molar units. The pIC50 is the IC50 on a negative log10 scale, so that one unit is a factor of ten. Turning to `COC1(c2ccccc2)Oc2ccccc2C(=O)C1(O)C[N+](=O)[O-]` (centres undefined), the pEC50 is < 3.70 and the pIC50 is 4.81. Turning to `CCOC(=O)c1nnsc1NN`, the pEC50 was < 3.70 and the pIC50 was 3.78. On the same counts, the results for `CC(=O)c1c(O)cc(O)cc1-c1cc(=O)c2c(O)ccc(C(C)=O)c2o1` are < 3.70 and 3.77. `Cc1cccc(C(C)(C)C)c1NC(=O)CC1C(=O)Nc2ccccc2S1=O` (centres undefined): the outcome was inactive. Regarding `COc1cc([C@H]2CC(=O)C[C@@H](c3cc(OC)c(OC)c(OC)c3)C23C(=O)c2ccccc2C3=O)cc(OC)c1OC`, the pEC50 was < 3.70 and the negative-log IC50 (pIC50) is < 3.70. As for `CCCCn1c(-c2ccccc2)cs/c1=N\NC(=O)Cn1c(C)nc2ccccc21`, the pEC50 was < 4.07 and the pIC50 was 4.46.

For `Cc1ccc2c(c1)nc1sc(C)cc(=O)n12`, the pEC50 is < 3.70 and the pIC50 is < 3.70. As to `FC(F)(F)c1ccc2c(c1)N(CCCNCCN1CCOCC1)c1ccccc1S2`, the pEC50 is < 3.45 and the pIC50 was 4.68. Take `O=c1oc2ccccc2n1CCN1CCCCC1`: the pEC50 is < 3.70 and the pIC50 is < 3.70. With `COc1cc(/C=C/C(=O)c2sc(-n3nc(-c4ccccc4)cc3-c3ccccc3)nc2C)ccc1O`, the pEC50 was < 4.84 and the pIC50 was < 4.84.

Take `N#Cc1c2c([nH]c(=O)c1C#N)CCCC2`: the pEC50 is < 3.70 and the pIC50 was < 3.70.

Turning to `COc1cc(-c2cc(=O)c3cc(C)c(C)c(C(=O)O)c3o2)cc(OC)c1OC`, the result was inactive. As to `O=c1[nH]c2cc(Cl)ccc2n1C1CCN(CCCC(c2ccc(F)cc2)c2ccc(F)cc2)CC1`, the pEC50 is < 3.70 and the pIC50 was 4.73. On the same counts, the results for `c1csc(-c2ccc(-c3ccc(-c4ccc(-c5cccs5)s4)s3)s2)c1` are < 3.70 and < 3.70. The like results for `COC(=O)c1ccc(OCc2nc3ccccc3[nH]2)cc1` were, in that order, < 3.70 and 4.12. The like results for `COc1ccc(-c2c(C(=O)O)oc3cc(O)ccc3c2=O)cc1OC` were, in that order, < 3.70 and < 3.70. `CC(C)[Si](OC1=CCC[C@H]2NC(=O)[C@@H](Cc3ccccc3)[C@@]12C)(C(C)C)C(C)C`: the pEC50 was < 3.70 and the negative logarithm of the IC50 (pIC50) is 4.92. For `O=C(O)c1ccccc1P12(OC(=O)c3ccccc31)OC(=O)c1ccccc12`, the pEC50 was < 3.68 and the pIC50 was 3.77. Turning to `Cc1ccc2n(c1)cc(-c1ccc(/C=N/NC(=N)N/N=C/c3ccc(-c4cn5cc(C)ccc5[n+]4C)cc3)cc1)[n+]2C`, the pEC50 was 4.81 and the pIC50 was 4.31. The like results for `CC(=O)Oc1c(C)cc2c(c1C)C(C)CN2C(C)=O` (centres undefined) were, in that order, < 3.70 and < 3.70.

Turning to `O=C(CCC[n+]1ccccc1)CC(O)(C(F)(F)F)C(F)(F)F`, the pEC50 was < 3.70 and the pIC50 is < 3.70.

With `OCC1(CO)CCC1(CO)CO`, the result was inactive. For the compound `S=c1cc(-c2ccccc2)ss1`, the pEC50 is < 3.70; the pIC50 is 4.42 and < 3.70.

`CCN(c1ccccc1)c1cc(=O)nc2ccccn12`: the pEC50 is < 3.70 and the pIC50 was < 3.70. `COC(=O)N/N=C(\C)C(CN1CCCCC1)C(C1=C(O)c2ccccc2OC1)c1ccccc1` (centres undefined): the pEC50 was < 4.14 and the negative-log IC50 (pIC50) was 4.37. The like results for `CCCCC(C)CCC(=O)C1=C(O)C(CC(=O)O)OC1=O` (centres undefined) were, in that order, < 4.08 and < 4.08. On the same counts, the results for `CC(NC(=O)C(NC(=O)OC(C)(C)C)C(C)C)C(=O)N1CCCC1C(=O)O` (stereo not drawn) (Boc-Val-Ala-Pro-OH; configuration not given here) are < 3.70 and < 3.70. Take `COc1cc2c(c(OC)c1OC)C(=O)[C@@H]1[C@H]2N1C(=O)NCCCl`: the pEC50 was < 3.70 and the pIC50 was 4.34. Regarding `Nc1nn2cc3c(nc2c1N=Nc1ccccc1)-c1ccccc1CC3`, the pEC50 was < 3.70 and the pIC50 is < 3.70. Consider `Cc1ccc(NC(=O)CCC/C(CC(=O)c2ccc(Br)cc2)=N/NC(=O)CC#N)cc1`, for which the pEC50 is < 3.99 and the pIC50 is < 3.99. As to `O=S1c2ccccc2SCSc2ccccc21`, the pEC50 was < 3.70 and the pIC50 is < 3.70. As for `CC(C)=CCC/C(=C/CC/C(C)=C/CCc1ccoc1)C(=O)O`, the pEC50 is < 3.53 and the pIC50 is 3.97.

On to `O=C1c2ccccc2CC12Cc1cc3c(cc1C2)CCC3`, for which the pEC50 was < 3.70 and the pIC50 is < 3.70. As for `COC(=O)Nc1nc2ccc(C(=O)c3ccc[nH]3)cc2[nH]1`, the pEC50 was < 3.70; the pIC50 was 6.01 and 5.78. For `NC(N)=N/N=C(/CC1OC(=O)c2ccccc21)c1ccc2ccccc2c1` (centres undefined), the pEC50 is < 4.55 and the pIC50 is < 4.55. Take `Cc1ccc(C)c(NC(=O)C(=O)C(C2C(C)CC(=O)C2CC(=O)O)[N+](=O)[O-])c1` (centres undefined): the pEC50 was < 3.19 and the pIC50 is < 3.19.

For `CCCCCCCCCCCCCCCCCCN(C)C`, the pEC50 was < 3.70 and the negative logarithm of the IC50 (pIC50) is 4.01. With `CN1C(=O)CC2CCC(=O)N2c2cccnc21` (centres undefined), the pEC50 was < 3.70 and the pIC50 is < 3.70.

With `COc1ccc2c(c1)C(=O)/C(=C/c1ccccc1)C2`, the pEC50 is < 3.70 and the pIC50 was 4.32.

Consider `CC1(C)OC(=O)C(C)(C)C(=O)O1`, for which the outcome was inactive. On to `Cc1ccc(-c2c(C#N)c(-c3ccc([N+](=O)[O-])cc3)c(C#N)c(=O)n2NS(=O)(=O)c2ccccc2)cc1`, for which the pEC50 is < 3.70 and the negative logarithm of the IC50 (pIC50) was 4.78.

With `CC(C)(CN1CCCCC1)C(=O)/C=C/c1ccccc1`, the pEC50 is < 3.85 and the pIC50 is 4.16. The like results for `Cn1nnnc1SC(F)(F)c1nc2ccccc2o1` were, in that order, 3.90 and < 3.70. Regarding `CCOC1CCN(C(=O)c2ccccc2)O1` (centres undefined), the pEC50 is < 3.70 and the pIC50 is < 3.70. As for `CC12CC3CC(C)(C1)CC(CN=C(N)CS)(C3)C2`, the pEC50 was < 3.70 and the pIC50 was 4.50. The like results for `O=C(CCc1nnc2s/c(=C\c3ccc(Cl)c(Cl)c3)c(=O)n12)Nc1ccc(Cl)c(Cl)c1` were, in that order, < 4.88 and < 4.88. For the compound `COc1ccc(NC(=O)Nc2onc(C)c2C)c(Cl)c1`, the pEC50 was < 3.72 and the pIC50 is 3.82. The like results for `CCCCNC(=O)/C(=C/c1cccc(N(CC)CC)c1)NC(=O)c1ccccc1` were, in that order, < 3.70 and 4.60. On the same counts, the results for `CCc1c(C)c(C#N)c(=S)n(C2OC(CO)C(O)C(O)C2O)c1C` (centres undefined) are < 3.70 and < 3.70.
